Measurements taken from ChEMBL document CHEMBL1131686, “Synthesis and biological activities of topoisomerase I inhibitors, 6-N-amino analogues of NB-506” (Bioorg Med Chem Lett, 1999).
pEC50, pIC50: −log10 of the molar value.

Legend:
[1] = target: Epidermal growth factor receptor (Homo sapiens, UniProt P00533); assay: In vitro activity against Epidermal growth factor receptor (using poly(Glu4Tyr1) as a substrate)
[2] = tested on: MKN-45; assay: In vitro cytotoxicity (CTX) against human stomach cancer cells (MKN-45) using sulforhodamine B dye-staining method; type: functional, cell-based
[3] = tested on: P388; assay: Effect on the formation of protein-DNA complex in P388 cells K+/SDS method; type: functional, Mus musculus
[4] = tested on: P388; assay: In vitro cytotoxicity (CTX) against murine leukemia cells (P388) using colorimetric tetrazolium-formazan method; type: functional, cell-based; settings: Mus musculus
[5] = target: Protein kinase C alpha type (Homo sapiens, UniProt P17252); assay: In vitro activity evaluated against protein kinase C (using histone II-As as a substrate)
[6] = target: T1, DNA topoisomerase 1 (Homo sapiens, UniProt P11387); assay: In vitro activity against topoisomerase-1 mediated cleavage of supercoiled pBR322 plasmid DNA; type: functional
T1 sequence (P11387 whole entry): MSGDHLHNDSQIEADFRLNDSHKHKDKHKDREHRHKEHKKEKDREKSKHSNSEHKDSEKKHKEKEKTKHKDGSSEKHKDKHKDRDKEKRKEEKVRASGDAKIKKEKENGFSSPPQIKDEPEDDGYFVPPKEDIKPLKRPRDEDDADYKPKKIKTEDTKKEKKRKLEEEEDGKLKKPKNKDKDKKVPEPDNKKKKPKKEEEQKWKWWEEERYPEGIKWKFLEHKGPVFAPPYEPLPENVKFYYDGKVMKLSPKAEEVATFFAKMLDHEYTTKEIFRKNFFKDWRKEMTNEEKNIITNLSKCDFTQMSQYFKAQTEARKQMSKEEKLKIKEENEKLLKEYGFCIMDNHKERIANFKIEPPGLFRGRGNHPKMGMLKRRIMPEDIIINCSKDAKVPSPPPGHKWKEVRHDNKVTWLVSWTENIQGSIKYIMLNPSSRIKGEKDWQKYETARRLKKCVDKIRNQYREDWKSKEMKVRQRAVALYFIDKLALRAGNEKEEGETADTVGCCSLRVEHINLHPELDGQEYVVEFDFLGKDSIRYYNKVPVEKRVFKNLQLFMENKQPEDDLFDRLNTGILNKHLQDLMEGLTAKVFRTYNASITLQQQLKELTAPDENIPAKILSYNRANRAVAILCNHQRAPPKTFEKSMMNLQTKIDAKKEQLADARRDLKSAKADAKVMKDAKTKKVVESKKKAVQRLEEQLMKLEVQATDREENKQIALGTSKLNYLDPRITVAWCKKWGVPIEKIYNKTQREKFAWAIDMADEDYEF

[7] = target: DNA topoisomerase II (Homo sapiens, UniProt P11388+Q02880); assay: In vitro activity against topoisomerase-2 mediated cleavage of supercoiled pBR322 plasmid DNA; type: functional
[8] = tested on: MKN-45; assay: Cytotoxicity against human stomach cancer cells (MKN-45) after intravenous administration (5 times/week for 2 weeks after tumor grew to 0.2 cme3 or larger); type: functional, cell-based; settings: MKN-45, 336 h
[9] = tested on: Mus musculus; assay: Cytotoxicity against human stomach cancer cells (MKN-45) implanted subcutaneously into a side flank of nude mice; type: functional, Cancer cell lines
[10] = Lethal dose after intravenous administration (5 times/week for 2 weeks after tumor grew to 0.2 cme3 or larger) in mice; type: toxicity; settings: mouse, in vivo, 336 h
[11] = Ratio of LD10 to that of GID75 was determined; expressed as safety margin; type: functional

Chain of Epidermal growth factor receptor (P00533 whole entry): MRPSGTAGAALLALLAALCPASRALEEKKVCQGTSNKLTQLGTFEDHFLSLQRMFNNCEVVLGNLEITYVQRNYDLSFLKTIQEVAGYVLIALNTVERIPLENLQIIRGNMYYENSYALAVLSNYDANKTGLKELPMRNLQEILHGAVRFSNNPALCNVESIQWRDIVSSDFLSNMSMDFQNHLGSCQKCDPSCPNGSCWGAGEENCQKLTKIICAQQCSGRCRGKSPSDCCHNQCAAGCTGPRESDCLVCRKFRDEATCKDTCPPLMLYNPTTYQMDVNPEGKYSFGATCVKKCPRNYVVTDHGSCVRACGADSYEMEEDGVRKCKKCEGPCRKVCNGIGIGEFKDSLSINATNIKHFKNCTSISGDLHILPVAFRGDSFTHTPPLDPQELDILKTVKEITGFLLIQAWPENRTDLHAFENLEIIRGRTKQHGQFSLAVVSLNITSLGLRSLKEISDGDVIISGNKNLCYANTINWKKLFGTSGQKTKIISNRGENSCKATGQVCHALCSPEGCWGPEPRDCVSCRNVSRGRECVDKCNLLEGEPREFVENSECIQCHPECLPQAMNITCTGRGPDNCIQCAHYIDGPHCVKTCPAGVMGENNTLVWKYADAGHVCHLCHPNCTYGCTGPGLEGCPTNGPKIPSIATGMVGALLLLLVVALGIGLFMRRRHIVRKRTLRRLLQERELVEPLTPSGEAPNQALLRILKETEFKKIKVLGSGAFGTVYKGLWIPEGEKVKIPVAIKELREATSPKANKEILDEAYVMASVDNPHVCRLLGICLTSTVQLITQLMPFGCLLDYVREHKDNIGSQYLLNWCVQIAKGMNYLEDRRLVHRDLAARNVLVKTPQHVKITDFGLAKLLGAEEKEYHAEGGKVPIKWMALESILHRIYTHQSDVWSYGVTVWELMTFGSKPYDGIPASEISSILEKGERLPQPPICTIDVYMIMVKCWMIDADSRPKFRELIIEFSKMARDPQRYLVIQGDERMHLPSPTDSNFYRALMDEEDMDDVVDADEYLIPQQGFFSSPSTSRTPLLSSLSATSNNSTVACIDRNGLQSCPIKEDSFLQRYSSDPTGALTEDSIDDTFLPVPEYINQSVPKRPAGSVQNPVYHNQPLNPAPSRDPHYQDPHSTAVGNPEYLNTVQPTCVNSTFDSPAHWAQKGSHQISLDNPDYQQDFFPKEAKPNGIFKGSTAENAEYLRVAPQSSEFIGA

Row | Structure (SMILES) | pIC50 [1] | pIC50 [2] | EC200 [3] [µM] | pIC50 [4] | pIC50 [5] | pEC50 [6] | EC50 [7] [nM] | pIC50 [8] | GID75 [9] [mg/me2] | LD10 [10] [mg/me2] | Activity [11] [Ratio]
1 | O=C1c2c(c3c4cccc(O)c4n(C4OC(CO)C(O)C(O)C4O)c3c3[nH]c4c(O)cccc4c23)C(=O)N1NCc1cccc(O)c1 (stereo not drawn) | < 3.70 | 7.92 | 0.26 | 8.15 | 4.89 | 6.52 | > 50000 | – | – | – | –
2 | O=C1NC(=O)c2c1c1c3cccc(O)c3[nH]c1c1c2c2cccc(O)c2n1C1OC(CO)C(O)C(O)C1O (stereo not drawn) | 4.05 | 6.27 | 2 | 7.36 | 5.42 | 5.52 | > 50000 | – | – | – | –
3 | NC(=O)NN1C(=O)c2c(c3c4cccc(O)c4n(C4OC(CO)C(O)C(O)C4O)c3c3[nH]c4c(O)cccc4c23)C1=O (stereo not drawn) | < 3.70 | 6.57 | 2.8 | 7.46 | < 3.70 | 6.44 | > 50000 | – | – | – | –
4 | NN1C(=O)c2c(c3c4cccc(O)c4n(C4OC(CO)C(O)C(O)C4O)c3c3[nH]c4c(O)cccc4c23)C1=O (stereo not drawn) | < 3.70 | 6.89 | 0.5 | 7.40 | < 3.70 | 6.57 | > 50000 | – | – | – | –
5 | O=C(Nc1ccccc1)NN1C(=O)c2c(c3c4cccc(O)c4n(C4OC(CO)C(O)C(O)C4O)c3c3[nH]c4c(O)cccc4c23)C1=O (stereo not drawn) | 4.02 | 6.60 | >10 | 6.60 | 5.17 | 6.60 | – | – | – | – | –
6 | O=C1NC(=O)c2c1c1c3cccc(O)c3[nH]c1c1[nH]c3c(O)cccc3c21 | 4.54 | – | 3 | 5.70 | 4.40 | < 5.52 | > 50000 | – | – | – | –
7 | CN(C)CC(=O)NN1C(=O)c2c(c3c4cccc(O)c4n(C4OC(CO)C(O)C(O)C4O)c3c3[nH]c4c(O)cccc4c23)C1=O (stereo not drawn) | < 3.70 | 6.34 | >10 | 6.59 | < 3.70 | 6.77 | – | – | – | – | –
8 | CC(=O)NN1C(=O)c2c(c3c4cccc(O)c4n(C4OC(CO)C(O)C(O)C4O)c3c3[nH]c4c(O)cccc4c23)C1=O (stereo not drawn) | < 3.70 | 6.59 | 2 | 6.82 | 3.89 | 6.00 | > 50000 | – | – | – | –
9 | CN(C)N1C(=O)c2c(c3c4cccc(O)c4n(C4OC(CO)C(O)C(O)C4O)c3c3[nH]c4c(O)cccc4c23)C1=O (stereo not drawn) | < 3.70 | < 5.00 | >10 | 5.80 | 4.23 | < 5.00 | > 50000 | – | – | – | –
10 | O=C1c2c(c3c4cccc(O)c4n(C4OC(CO)C(O)C(O)C4O)c3c3[nH]c4c(O)cccc4c23)C(=O)N1NC(CO)CO (stereo not drawn) | – | 6.89 | 0.45 | 7.77 | < 3.70 | 6.24 | > 50000 | 6.89 | 78 | 390 | 5
11 | O=C1c2c(c3c4cccc(O)c4n(C4OC(CO)C(O)C(O)C4O)c3c3[nH]c4c(O)cccc4c23)C(=O)N1NCCO (stereo not drawn) | < 3.70 | 8.52 | 0.3 | 8.22 | < 3.70 | 6.37 | > 50000 | 8.52 | 270 | 560 | 2.1
12 | CNN1C(=O)c2c(c3c4cccc(O)c4n(C4OC(CO)C(O)C(O)C4O)c3c3[nH]c4c(O)cccc4c23)C1=O (stereo not drawn) | 4.00 | 6.89 | 2.5 | 7.12 | 4.26 | 6.46 | > 50000 | – | – | – | –
